Measurements taken from US9096624B2 (OSI Pharmaceuticals, LLC, priority 2009, dated 2015).

Columns and labels:
FAK [1] = target: T1, FAK (Homo sapiens, UniProt Q05397); assay: biochemical
FAK [2] = target: T1, FAK; assay: Cell-based capture ELISA for inhibition of FAK autophosphorylation [pY397] in MiaPaCa2 cells
Method: Cell-Based Assays for Inhibition of FAK Autophosphorylation: MiaPaCa2 and U87MG
ELISA kit from Invitrogen (KHO0441).
Reagents Provided in Biosource FAK [pY397]
The cells were then suspended in cell assay medium.

[3] = MIA-PaCa2 cells on fibronectin, 2 h, no plasma, read-out: Mean FAK Cell Mechanistic IC50 MIA-PaCa2
[4] = MIA-PaCa2 cells, + 50% human plasma, read-out: Mean FAK Cell Mechanistic IC50 + 50% hP MIA-PaCa2
[5] = MIA-PaCa2 cells, + 50% mouse plasma (Table 2), read-out: Mean FAK Cell Mechanistic IC50 + 50% mP MIA-PaCa2

T1 sequence (Q05397 whole entry): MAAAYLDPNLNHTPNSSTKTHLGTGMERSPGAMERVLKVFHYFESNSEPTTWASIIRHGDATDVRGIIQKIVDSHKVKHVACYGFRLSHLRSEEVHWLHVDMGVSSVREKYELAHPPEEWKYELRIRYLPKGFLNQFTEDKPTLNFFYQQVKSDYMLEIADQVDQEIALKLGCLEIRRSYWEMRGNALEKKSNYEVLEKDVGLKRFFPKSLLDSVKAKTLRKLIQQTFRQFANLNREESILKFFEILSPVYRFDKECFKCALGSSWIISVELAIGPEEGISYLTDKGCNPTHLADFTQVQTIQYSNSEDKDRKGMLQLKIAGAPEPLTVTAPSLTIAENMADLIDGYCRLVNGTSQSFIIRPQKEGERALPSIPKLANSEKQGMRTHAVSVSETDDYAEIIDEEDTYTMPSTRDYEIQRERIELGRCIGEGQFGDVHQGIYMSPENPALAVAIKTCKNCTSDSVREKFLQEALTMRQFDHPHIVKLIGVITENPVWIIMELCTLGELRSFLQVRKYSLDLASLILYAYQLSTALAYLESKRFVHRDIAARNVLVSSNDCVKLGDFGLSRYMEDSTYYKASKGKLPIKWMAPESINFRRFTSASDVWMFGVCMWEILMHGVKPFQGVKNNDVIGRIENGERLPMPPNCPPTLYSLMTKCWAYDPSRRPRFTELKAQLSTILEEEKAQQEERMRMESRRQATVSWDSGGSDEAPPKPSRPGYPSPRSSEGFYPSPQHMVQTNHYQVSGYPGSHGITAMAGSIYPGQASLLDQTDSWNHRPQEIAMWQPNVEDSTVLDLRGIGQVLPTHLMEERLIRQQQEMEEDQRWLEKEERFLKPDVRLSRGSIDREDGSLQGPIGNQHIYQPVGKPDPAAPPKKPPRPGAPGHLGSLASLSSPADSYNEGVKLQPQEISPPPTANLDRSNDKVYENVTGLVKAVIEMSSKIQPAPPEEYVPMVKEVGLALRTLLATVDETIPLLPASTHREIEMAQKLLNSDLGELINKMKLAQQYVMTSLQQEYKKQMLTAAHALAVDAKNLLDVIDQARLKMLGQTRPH

| SMILES | IC50 (FAK [1]) | IC50 (FAK [2]; [3]) | IC50 (FAK [2]; [4]) | IC50 (FAK [2]; [5]) |
| --- | --- | --- | --- | --- |
| CNC(=O)c1ccccc1Nc1nc(Nc2cccc(CP(C)(C)=O)c2)ncc1C(F)(F)F [Example 17, 2-{2-[3-(Dimethylphosphinoylmethyl)phenylamino]-5-trifluoromethylpyrimidin-4-ylamino}-N-methylbenzamide] | < 1000 nM | < 1000 nM | < 1000 nM | < 1000 nM |
| CNC(=O)c1ccccc1Nc1nc(Nc2ccc(P(C)(C)=O)cc2)ncc1C(F)(F)F [Example 18, 2-{[2-{[4-(Dimethylphosphoryl)phenyl]amino}-5-(trifluoromethyl)pyrimidin-4-yl]amino}-N-methylbenzamide] | < 1000 nM | < 1000 nM | < 1000 nM | < 1000 nM |
| CCOP(=O)(Cc1ccc(Nc2ncc(C(F)(F)F)c(Nc3ccccc3C(=O)NC)n2)cc1)OCC [Example 20, diethyl (4-{[4-{[2-(methylcarbamoyl)phenyl]amino}-5-(trifluoromethyl)pyrimidin-2-yl]amino}benzyl)phosphonate] | < 1000 nM | < 1000 nM | < 1000 nM | – |
| CCOP(=O)(OCC)C(C)(C)c1ccc(Nc2ncc(C(F)(F)F)c(Nc3ccccc3C(=O)NC)n2)cc1 [Example 21, Diethyl [2-(4-{[4-{[2-(methylcarbamoyl)phenyl]amino}-5-(trifluoromethyl)pyrimidin-2-yl]amino}phenyl)propan-2-yl]phosphonate] | < 1000 nM | < 1000 nM | < 1000 nM | – |
| CCOP(C)(=O)Cc1ccc(Nc2ncc(C(F)(F)F)c(Nc3ccccc3C(=O)NC)n2)cc1 (stereo not drawn) [Example 22, Ethyl methyl(4-{[4-{[2-(methylcarbamoyl)phenyl]amino}-5-(trifluoromethyl)pyrimidin-2-yl]amino}benzyl)phosphinate] | < 1000 nM | < 1000 nM | < 1000 nM | – |
| CCP(=O)(CC)Cc1cccc(Nc2ncc(C(F)(F)F)c(Nc3ccccc3C(=O)NC)n2)c1 [Example 23, 2-{[2-({3-[(Diethylphosphoryl)methyl]phenyl}amino)-5-(trifluoromethyl)pyrimidin-4-yl]amino}-N-methylbenzamide] | < 1000 nM | < 1000 nM | < 1000 nM | < 1000 nM |
| CCP(=O)(CC)Cc1ccc(Nc2ncc(C(F)(F)F)c(Nc3ccccc3C(=O)NC)n2)cc1 [Example 24, 2-{[2-({4-[(Diethylphosphoryl)methyl]phenyl}amino)-5-(trifluoromethyl)pyrimidin-4-yl]amino}-N-methylbenzamide] | < 1000 nM | < 1000 nM | < 1000 nM | < 1000 nM |
| CCOP(=O)(Cc1ccc(Nc2ncc(C(F)(F)F)c(NCc3cccc(S(C)(=O)=O)c3)n2)cc1)OCC [Example 25, diethyl (4-{[4-{[3-(methylsulfonyl)benzyl]amino}-5-(trifluoromethyl)pyrimidin-2-yl]amino}benzyl)phosphonate] | < 1000 nM | – | – | 1000 to 10000 nM |
| CCCCOP(=O)(Cc1ccc(Nc2ncc(C(F)(F)F)c(NCc3cccnc3N(C)S(C)(=O)=O)n2)cc1)OCCCC [Example 26, Dibutyl [4-({4-[({2-[methyl(methylsulfonyl)amino]pyridin-3-yl}methyl)amino]-5-(trifluoromethyl)pyrimidin-2-yl}amino)benzyl]phosphonate] | < 1000 nM | < 1000 nM | < 1000 nM | 1000 to 10000 nM |
| CCCOP(=O)(Cc1ccc(Nc2ncc(C(F)(F)F)c(NCc3cccnc3N(C)S(C)(=O)=O)n2)cc1)OCCC [Example 28, dipropyl [4-({4-[({2-[methyl(methylsulfonyl)amino]pyridin-3-yl}methyl)amino]-5-(trifluoromethyl)pyrimidin-2-yl}amino)benzyl]phosphonate] | < 1000 nM | < 1000 nM | < 1000 nM | < 1000 nM |
| CCC(C)OP(=O)(Cc1ccc(Nc2ncc(C(F)(F)F)c(NCc3cccnc3N(C)S(C)(=O)=O)n2)cc1)OC(C)CC (stereo not drawn) [Example 29, dibutan-2-yl [4-({4-[({2-[methyl(methylsulfonyl)amino]pyridin-3-yl}methyl)amino]-5-(trifluoromethyl)pyrimidin-2-yl}amino)benzyl]phosphonate] | < 1000 nM | < 1000 nM | 1000 to 10000 nM | 1000 to 10000 nM |
| CC(C)COP(=O)(Cc1ccc(Nc2ncc(C(F)(F)F)c(NCc3cccnc3N(C)S(C)(=O)=O)n2)cc1)OCC(C)C [Example 30, bis(2-methylpropyl) [4-({4-[({2-[methyl(methylsulfonyl)amino]pyridin-3-yl}methyl)amino]-5-(trifluoromethyl)pyrimidin-2-yl}amino)benzyl]phosphonate] | < 1000 nM | 1000 to 10000 nM | 1000 to 10000 nM | 1000 to 10000 nM |
| CN(c1ncccc1CNc1nc(Nc2ccc(CP3(=O)OCCCO3)cc2)ncc1C(F)(F)F)S(C)(=O)=O [Example 31, N-methyl-N-[3-({[2-({4-[(2-oxido-1,3,2-dioxaphosphinan-2-yl)methyl]phenyl}amino)-5-(trifluoromethyl)pyrimidin-4-yl]amino}methyl)pyridin-2-yl]methanesulfonamide] | < 1000 nM | < 1000 nM | < 1000 nM | < 1000 nM |
| CN(c1ncccc1CNc1nc(Nc2ccc(CP3(=O)OCC(C)(C)CO3)cc2)ncc1C(F)(F)F)S(C)(=O)=O [Example 32, N-[3-({[2-({4-[(5,5-dimethyl-2-oxido-1,3,2-dioxaphosphinan-2-yl)methyl]phenyl}amino)-5-(trifluoromethyl)pyrimidin-4-yl]amino}methyl)pyridin-2-yl]-N-methylmethanesulfonamide] | < 1000 nM | < 1000 nM | < 1000 nM | < 1000 nM |
| CN(c1ncccc1CNc1nc(Nc2ccc(CP(=O)(OCCc3ccsc3)OCCc3ccsc3)cc2)ncc1C(F)(F)F)S(C)(=O)=O [Example 33, bis[2-(thiophen-3-yl)ethyl] [4-({4-[({2-[methyl(methylsulfonyl)amino]pyridin-3-yl}methyl)amino]-5-(trifluoromethyl)pyrimidin-2-yl}amino)benzyl]phosphonate] | < 1000 nM | – | – | > 10000 nM |
| CN(c1ncccc1CNc1nc(Nc2ccc(CP(=O)(OCC3CCC3)OCC3CCC3)cc2)ncc1C(F)(F)F)S(C)(=O)=O [Example 34, bis(cyclobutylmethyl) [4-({4-[({2-[methyl(methylsulfonyl)amino]pyridin-3-yl}methyl)amino]-5-(trifluoromethyl)pyrimidin-2-yl}amino)benzyl]phosphonate] | < 1000 nM | – | – | 1000 to 10000 nM |
| CC(C)OP(=O)(Cc1cccc(Nc2ncc(C(F)(F)F)c(NCc3cccnc3N(C)S(C)(=O)=O)n2)c1)OC(C)C [Example 35, Dipropan-2-yl [3-({4-[({2-[methyl(methylsulfonyl)amino]pyridin-3-yl}methyl)amino]-5-(trifluoromethyl)pyrimidin-2-yl}amino)benzyl]phosphonate] | < 1000 nM | – | – | 1000 to 10000 nM |
| COP(=O)(OC)c1ccc(Nc2ncc(C(F)(F)F)c(NCc3cccnc3N(C)S(C)(=O)=O)n2)cc1 [Example 36, Dimethyl [4-({4-[({2-[methyl(methylsulfonyl)amino]pyridin-3-yl}methyl)amino]-5-(trifluoromethyl)pyrimidin-2-yl}amino)phenyl]phosphonate] | < 1000 nM | – | – | < 1000 nM |
| CCCOP(=O)(OCCC)c1ccc(Nc2ncc(C(F)(F)F)c(NCc3cccnc3N(C)S(C)(=O)=O)n2)cc1 [Example 37, dipropyl [4-({4-[({2-[methyl(methylsulfonyl)amino]pyridin-3-yl}methyl)amino]-5-(trifluoromethyl)pyrimidin-2-yl}amino)phenyl]phosphonate] | < 1000 nM | – | – | 1000 to 10000 nM |
| CC(C)OP(=O)(OC(C)C)c1ccc(Nc2ncc(C(F)(F)F)c(NCc3cccnc3N(C)S(C)(=O)=O)n2)cc1 [Example 38, dipropan-2-yl [4-({4-[({2-[methyl(methylsulfonyl)amino]pyridin-3-yl}methyl)amino]-5-(trifluoromethyl)pyrimidin-2-yl}amino)phenyl]phosphonate] | < 1000 nM | – | – | 1000 to 10000 nM |
| CCOP(=O)(OCC)c1cccc(Nc2ncc(C(F)(F)F)c(NCc3cccnc3N(C)S(C)(=O)=O)n2)c1 [Example 39, diethyl [3-({4-[({2-[methyl(methylsulfonyl)amino]pyridin-3-yl}methyl)amino]-5-(trifluoromethyl)pyrimidin-2-yl}amino)phenyl]phosphonate] | < 1000 nM | – | – | 1000 to 10000 nM |
| CCOP(=O)(O)c1ccc(Nc2ncc(C(F)(F)F)c(NCc3cccnc3N(C)S(C)(=O)=O)n2)cc1 [Example 40, Ethyl hydrogen [4-({4[({2-[methyl(methylsulfonyl)amino]pyridin-3-yl}methyl)amino]-5-(trifluoromethyl)pyrimidin-2-yl}amino)phenyl]phosphonate] | < 1000 nM | 1000 to 10000 nM | 1000 to 10000 nM | – |
| CCOP(=O)(O)Cc1ccc(Nc2ncc(C(F)(F)F)c(NCc3cccnc3N(C)S(C)(=O)=O)n2)cc1 [Example 42, Ethyl hydrogen [4-({4-[({2-[methyl(methylsulfonyl)amino]pyridin-3-yl}methyl)amino]-5-(trifluoromethyl)pyrimidin-2-yl}amino)benzyl]phosphonate] | < 1000 nM | 1000 to 10000 nM | 1000 to 10000 nM | – |
| CN(c1ncccc1CNc1nc(Nc2cccc(CP(=O)(O)O)c2)ncc1C(F)(F)F)S(C)(=O)=O [Example 43, [3-({4-[({2-[Methyl(methylsulfonyl)amino]pyridin-3-yl}methyl)amino]-5-(trifluoromethyl)pyrimidin-2-yl}amino)benzyl]phosphonic acid] | < 1000 nM | 1000 to 10000 nM | 1000 to 10000 nM | 1000 to 10000 nM |
